Patent US20080009418A1, “Selective Inhibitors” (Alchemia LTD., priority 2004, published 2008)

How the values were obtained:
Details in all cases: compound at 10 μM
[1] = biological target: T1, Human melanin-concentrating hormone (MCH1) (Homo sapiens, UniProt Q99705); experiment: Radioligand binding, human melanin-concentrating hormone MCH1 membranes, FlashPlate, [125I]-S36057
T1 construct: purchased Perkin Elmer Biosignal
How it was run: (§1)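 Cloned human receptor membranes were coated onto FlashPlate wells and incubated with radioligand and compound (added from a 0.5 mM DMSO daughter plate) for 1 hour at room temperature in the dark. Scintillation counting gave percent inhibition, with DMSO defining total and reference ligand defining non-specific binding.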

Mouse urotensin (mUR2) = biological target: T2, Mouse urotensin (mUR2) (Mus musculus, UniProt Q8VIH9); experiment: Radioligand binding, mouse urotensin mUR2 membranes, FlashPlate, [125I]-Urotensin II
T2 construct: purchased Perkin Elmer Biosignal
T2 sequence (Q8VIH9 1-385): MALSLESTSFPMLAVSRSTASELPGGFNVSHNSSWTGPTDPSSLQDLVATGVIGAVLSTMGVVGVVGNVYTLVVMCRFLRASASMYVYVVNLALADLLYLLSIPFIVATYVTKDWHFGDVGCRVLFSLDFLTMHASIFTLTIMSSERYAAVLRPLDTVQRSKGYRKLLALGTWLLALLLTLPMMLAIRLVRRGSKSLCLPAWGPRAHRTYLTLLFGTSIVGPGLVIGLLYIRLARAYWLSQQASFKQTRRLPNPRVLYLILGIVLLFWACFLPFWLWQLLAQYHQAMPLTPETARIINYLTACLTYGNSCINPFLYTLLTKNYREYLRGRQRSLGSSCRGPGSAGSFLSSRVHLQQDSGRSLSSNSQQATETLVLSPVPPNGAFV
How it was run: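 Cloned mouse urotensin (mUR2) receptor membranes from Perkin Elmer Biosignal were immobilized in FlashPlate microplates using a proprietary coating. Each well got 19.5 μl buffer, then 0.5 μl of DMSO, reference ligand, or compound. Adding 5 μl of [125I]-Urotensin II, diluted to 5× final concentration in binding buffer, started binding. Plates were sealed with TopSeal-A and incubated 1 hour at room temperature in the dark. Wells were counted for 30 seconds each on a TopCount after a 60-second delay, and percentage inhibition was calculated.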

Human δ-opioid (DOP) = biological target: T3, Human δ-opioid (DOP) (Homo sapiens, UniProt P41143); experiment: Radioligand binding, human δ-opioid (DOP) membranes, FlashPlate, [3H]-Bremazocine
T3 construct: purchased Perkin Elmer Biosignal
How it was run: as §1

Human melanocortin (MC5) = biological target: T4, Human melanocortin (MC5) (Homo sapiens, UniProt P33032); experiment: Radioligand binding, human melanocortin MC5 membranes, FlashPlate, [125I]-NDP-αMSH
T4 construct: purchased Perkin Elmer Biosignal
How it was run: as §1

Human κ-Opioid (KOP) = biological target: T5, Human κ-Opioid (KOP) (Homo sapiens, UniProt P41145); experiment: Radioligand binding, human κ-opioid (KOP) membranes, filtration, [3H]-Diprenorphine
T5 construct: purchased Perkin Elmer Biosignal
How it was run: (§2)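 Filtration binding on cloned human receptor membranes (1 Unit/well), [125I]-Substance P for NK1 and [3H]-Diprenorphine for KOP, 1 h at room temperature. Filters PEI-presoaked, washed with cold 50 mM Tris-HCl pH 7.4, counted by scintillation; percent inhibition calculated, reference ligand defining non-specific binding.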

Human Melanocortin (MC3) = biological target: T6, Human Melanocortin (MC3) (Homo sapiens, UniProt P41968); experiment: Radioligand binding, human melanocortin MC3 membranes, FlashPlate, [125I]-NDP-αMSH
T6 construct: purchased Perkin Elmer Biosignal
How it was run: as §1

Human neurokinin (NK1) = biological target: T7, Human neurokinin (NK1) (Homo sapiens, UniProt P25103); experiment: Radioligand binding, human neurokinin NK1 membranes, filtration, [125I]-Substance P
T7 construct: purchased Perkin Elmer Biosignal
How it was run: as §2

Human μ-opioid (MOP) = biological target: T8, Human μ-opioid (MOP) (Homo sapiens, UniProt P35372); experiment: Radioligand binding, human μ-opioid (MOP) membranes, FlashPlate, [3H]-Naloxone
T8 construct: purchased Perkin Elmer Biosignal
How it was run: as §1

Human opioid (ORL1) = biological target: T9, Human opioid (ORL1) (Homo sapiens, UniProt P41146); experiment: Radioligand binding, human opioid ORL1 membranes, FlashPlate, [125I]-Nociceptin
T9 construct: purchased Perkin Elmer Biosignal
How it was run: as §1

[2] = biological target: T10, Human neuropeptide Y (NPY-Y1) (Homo sapiens, UniProt P25929); experiment: Radioligand binding, human neuropeptide Y NPY-Y1 membranes, FlashPlate, [125I]-PYY
T10 construct: purchased Perkin Elmer Biosignal
T10 sequence (P25929 1-384): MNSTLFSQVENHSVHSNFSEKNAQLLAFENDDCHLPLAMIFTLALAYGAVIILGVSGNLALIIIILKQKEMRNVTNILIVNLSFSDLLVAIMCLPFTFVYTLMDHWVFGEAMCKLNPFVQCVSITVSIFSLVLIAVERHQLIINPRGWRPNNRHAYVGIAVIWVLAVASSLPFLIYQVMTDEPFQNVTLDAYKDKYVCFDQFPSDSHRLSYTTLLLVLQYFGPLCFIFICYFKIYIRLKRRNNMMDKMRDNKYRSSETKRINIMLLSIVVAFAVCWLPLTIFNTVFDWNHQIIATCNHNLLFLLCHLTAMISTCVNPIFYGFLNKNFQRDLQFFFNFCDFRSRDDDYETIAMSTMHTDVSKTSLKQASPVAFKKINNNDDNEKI
How it was run: as §1

Human Melanocortin (MC4) = biological target: T11, Human Melanocortin (MC4) (Homo sapiens, UniProt P32245); experiment: Radioligand binding, human melanocortin MC4 membranes, FlashPlate, [125I]-NDP-αMSH
T11 construct: purchased Perkin Elmer Biosignal
How it was run: as §1

T6 sequence (P41968 whole entry): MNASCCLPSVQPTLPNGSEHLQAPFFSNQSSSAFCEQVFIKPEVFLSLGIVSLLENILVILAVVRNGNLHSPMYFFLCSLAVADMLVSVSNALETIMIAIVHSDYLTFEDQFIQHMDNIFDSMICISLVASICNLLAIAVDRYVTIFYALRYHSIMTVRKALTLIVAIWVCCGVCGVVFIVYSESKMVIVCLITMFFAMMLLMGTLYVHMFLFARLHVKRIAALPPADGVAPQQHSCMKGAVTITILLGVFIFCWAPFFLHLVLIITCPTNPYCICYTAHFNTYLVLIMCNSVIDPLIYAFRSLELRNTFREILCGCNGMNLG
T5 sequence (P41145 whole entry): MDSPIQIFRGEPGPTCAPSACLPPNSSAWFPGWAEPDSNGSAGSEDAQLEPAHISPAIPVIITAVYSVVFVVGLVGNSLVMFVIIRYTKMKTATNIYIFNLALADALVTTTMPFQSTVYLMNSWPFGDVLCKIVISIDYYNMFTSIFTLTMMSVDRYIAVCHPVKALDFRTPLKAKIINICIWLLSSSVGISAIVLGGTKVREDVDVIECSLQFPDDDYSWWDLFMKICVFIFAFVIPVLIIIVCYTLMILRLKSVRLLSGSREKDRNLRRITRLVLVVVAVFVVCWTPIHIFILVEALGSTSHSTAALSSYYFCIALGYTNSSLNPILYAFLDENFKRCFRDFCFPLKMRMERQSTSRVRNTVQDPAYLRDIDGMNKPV
T9 sequence (P41146 whole entry): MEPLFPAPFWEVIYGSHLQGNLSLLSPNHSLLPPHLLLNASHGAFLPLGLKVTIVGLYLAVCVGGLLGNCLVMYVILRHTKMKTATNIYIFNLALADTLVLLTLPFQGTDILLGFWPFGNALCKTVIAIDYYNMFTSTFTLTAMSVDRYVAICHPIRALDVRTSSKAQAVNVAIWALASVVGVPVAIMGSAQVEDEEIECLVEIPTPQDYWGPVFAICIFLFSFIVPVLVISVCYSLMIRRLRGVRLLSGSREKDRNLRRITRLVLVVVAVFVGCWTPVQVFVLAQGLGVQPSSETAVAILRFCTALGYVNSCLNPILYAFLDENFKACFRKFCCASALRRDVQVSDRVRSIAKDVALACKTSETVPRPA
T7 sequence (P25103 whole entry): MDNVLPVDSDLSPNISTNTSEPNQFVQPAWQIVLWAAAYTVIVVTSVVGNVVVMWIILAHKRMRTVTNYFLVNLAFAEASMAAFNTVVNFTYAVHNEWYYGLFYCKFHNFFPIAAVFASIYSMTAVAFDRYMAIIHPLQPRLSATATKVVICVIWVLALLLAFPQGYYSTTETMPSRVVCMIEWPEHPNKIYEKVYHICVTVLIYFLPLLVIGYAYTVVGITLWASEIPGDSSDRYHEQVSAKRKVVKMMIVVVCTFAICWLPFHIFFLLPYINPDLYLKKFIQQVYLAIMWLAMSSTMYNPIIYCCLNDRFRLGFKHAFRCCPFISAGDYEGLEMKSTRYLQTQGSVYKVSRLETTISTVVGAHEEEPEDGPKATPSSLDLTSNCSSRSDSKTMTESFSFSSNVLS
T11 sequence (P32245 whole entry): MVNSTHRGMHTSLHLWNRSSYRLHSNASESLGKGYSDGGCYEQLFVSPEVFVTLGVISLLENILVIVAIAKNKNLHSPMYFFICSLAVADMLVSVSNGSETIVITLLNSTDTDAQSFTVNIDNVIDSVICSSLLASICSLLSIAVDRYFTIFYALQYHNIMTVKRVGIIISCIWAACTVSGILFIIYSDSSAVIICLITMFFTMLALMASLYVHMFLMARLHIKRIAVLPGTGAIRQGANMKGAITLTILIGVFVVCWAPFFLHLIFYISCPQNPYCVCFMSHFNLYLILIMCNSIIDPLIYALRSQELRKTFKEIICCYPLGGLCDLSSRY
T4 sequence (P33032 whole entry): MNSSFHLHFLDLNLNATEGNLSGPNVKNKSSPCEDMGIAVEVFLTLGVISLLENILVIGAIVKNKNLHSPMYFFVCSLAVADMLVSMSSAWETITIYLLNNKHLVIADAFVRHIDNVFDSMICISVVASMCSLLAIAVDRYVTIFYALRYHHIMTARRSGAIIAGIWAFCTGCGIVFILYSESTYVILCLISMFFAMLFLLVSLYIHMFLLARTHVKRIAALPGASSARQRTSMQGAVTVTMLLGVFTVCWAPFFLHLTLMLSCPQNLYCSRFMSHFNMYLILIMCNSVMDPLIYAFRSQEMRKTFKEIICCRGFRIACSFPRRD
T1 sequence (Q99705 whole entry): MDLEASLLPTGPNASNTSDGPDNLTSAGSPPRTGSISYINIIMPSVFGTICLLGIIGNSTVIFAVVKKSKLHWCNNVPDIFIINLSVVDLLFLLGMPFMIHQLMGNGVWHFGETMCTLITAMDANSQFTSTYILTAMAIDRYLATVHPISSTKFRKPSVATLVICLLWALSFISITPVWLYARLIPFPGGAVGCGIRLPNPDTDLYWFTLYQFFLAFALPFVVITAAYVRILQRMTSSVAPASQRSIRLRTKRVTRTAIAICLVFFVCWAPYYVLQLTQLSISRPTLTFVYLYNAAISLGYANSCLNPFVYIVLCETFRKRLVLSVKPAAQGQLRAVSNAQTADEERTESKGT
T8 sequence (P35372 whole entry): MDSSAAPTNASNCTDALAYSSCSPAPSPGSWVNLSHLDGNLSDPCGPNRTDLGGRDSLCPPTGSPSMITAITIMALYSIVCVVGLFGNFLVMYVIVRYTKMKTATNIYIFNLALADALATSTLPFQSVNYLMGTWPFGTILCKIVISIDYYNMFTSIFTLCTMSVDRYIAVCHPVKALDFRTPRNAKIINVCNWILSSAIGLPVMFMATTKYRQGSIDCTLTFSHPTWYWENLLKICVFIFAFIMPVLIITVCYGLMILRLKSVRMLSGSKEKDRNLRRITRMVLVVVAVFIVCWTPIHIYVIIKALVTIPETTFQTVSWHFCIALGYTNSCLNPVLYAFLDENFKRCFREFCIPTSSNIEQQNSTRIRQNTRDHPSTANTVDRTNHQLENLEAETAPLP
T3 sequence (P41143 whole entry): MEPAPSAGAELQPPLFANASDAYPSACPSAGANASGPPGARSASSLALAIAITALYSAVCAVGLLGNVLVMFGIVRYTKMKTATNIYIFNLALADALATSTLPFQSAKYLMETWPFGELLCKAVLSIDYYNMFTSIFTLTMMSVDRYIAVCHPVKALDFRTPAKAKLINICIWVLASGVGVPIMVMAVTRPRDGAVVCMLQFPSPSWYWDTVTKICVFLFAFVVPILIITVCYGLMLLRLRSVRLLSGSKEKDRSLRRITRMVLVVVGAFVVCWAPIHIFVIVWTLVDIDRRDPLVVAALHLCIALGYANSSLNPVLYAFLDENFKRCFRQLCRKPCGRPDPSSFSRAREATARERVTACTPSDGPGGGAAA

CO[C@H]1[C@H](O)[C@@H](COCc2ccc3ccccc3c2)OC(OCc2cccc(O)c2)[C@@H]1NC(=O)CCNC(=N)N (stereo partly drawn) [compound 166]
A6 radioligand binding, percentage inhibition ([1]; [125I]-S36057): − (“−” indicates less than 50% inhibition at 10 μM) | A11 radioligand binding, percentage inhibition (Mouse urotensin (mUR2); [125I]-Urotensin II): − (“−” indicates less than 50% inhibition at 10 μM) | A1 radioligand binding, percentage inhibition (Human δ-opioid (DOP); [3H]-Bremazocine): − (“−” indicates less than 50% inhibition at 10 μM) | A5 radioligand binding, percentage inhibition (Human melanocortin (MC5); [125I]-NDP-αMSH): + (“+” indicates greater than 50% inhibition at 10 μM) | A2 radioligand binding, percentage inhibition (Human κ-Opioid (KOP); [3H]-Diprenorphine): − (“−” indicates less than 50% inhibition at 10 μM) | A3 radioligand binding, percentage inhibition (Human Melanocortin (MC3); [125I]-NDP-αMSH): − (“−” indicates less than 50% inhibition at 10 μM) | A8 radioligand binding, percentage inhibition (Human neurokinin (NK1); [125I]-Substance P): + (“+” indicates greater than 50% inhibition at 10 μM) | A7 radioligand binding, percentage inhibition (Human μ-opioid (MOP); [3H]-Naloxone): − (“−” indicates less than 50% inhibition at 10 μM) | A10 radioligand binding, percentage inhibition (Human opioid (ORL1); [125I]-Nociceptin): − (“−” indicates less than 50% inhibition at 10 μM) | A9 radioligand binding, percentage inhibition ([2]; [125I]-PYY): − (“−” indicates less than 50% inhibition at 10 μM) | A4 radioligand binding, percentage inhibition (Human Melanocortin (MC4); [125I]-NDP-αMSH): + (“+” indicates greater than 50% inhibition at 10 μM)

COC[C@H]1OC(OCc2ccc(-c3ccccc3)cc2)[C@H](NC(=O)CCCN)[C@@H](OCc2ccc3ccccc3c2)[C@@H]1O (stereo partly drawn) [compound 5]
A6 radioligand binding inhibition ([1]; human MCH1 membranes): − (“−” indicates less than 50% inhibition at 10 μM) | A11 radioligand binding inhibition (Mouse urotensin (mUR2); mouse urotensin mUR2 membranes): − (“−” indicates less than 50% inhibition at 10 μM) | A1 radioligand binding inhibition (Human δ-opioid (DOP); human δ-opioid (DOP) membranes): − (“−” indicates less than 50% inhibition at 10 μM) | A5 radioligand binding inhibition (Human melanocortin (MC5); human melanocortin MC5 membranes): + (“+” indicates greater than 50% inhibition at 10 μM) | A2 radioligand binding inhibition (Human κ-Opioid (KOP); human κ-opioid (KOP) membranes): − (“−” indicates less than 50% inhibition at 10 μM) | A3 radioligand binding inhibition (Human Melanocortin (MC3); human melanocortin MC3 membranes): − (“−” indicates less than 50% inhibition at 10 μM) | A8 radioligand binding inhibition (Human neurokinin (NK1); human neurokinin NK1 membranes): + (“+” indicates greater than 50% inhibition at 10 μM) | A7 radioligand binding inhibition (Human μ-opioid (MOP); human μ-opioid (MOP) membranes): − (“−” indicates less than 50% inhibition at 10 μM) | A10 radioligand binding inhibition (Human opioid (ORL1); human ORL1 membranes): − (“−” indicates less than 50% inhibition at 10 μM) | A9 radioligand binding inhibition ([2]; human NPY-Y1 membranes): − (“−” indicates less than 50% inhibition at 10 μM) | A4 radioligand binding inhibition (Human Melanocortin (MC4); human melanocortin MC4 membranes): − (“−” indicates less than 50% inhibition at 10 μM)

NCCC(=O)NC1C(OCc2ccc(Cl)cc2)OC(COCc2ccccc2)C(O)C1OCc1ccc(Cl)cc1 (single isomer, unassigned) [compound 474]
A6: inhibition of radioligand binding ([1]; [125I]-S36057, human MCH1 membranes, 10 µM): − (“−” indicates less than 50% inhibition at 10 μM) | A11: inhibition of radioligand binding (Mouse urotensin (mUR2); [125I]-Urotensin II, mouse mUR2 membranes): − (“−” indicates less than 50% inhibition at 10 μM) | A1: inhibition of radioligand binding (Human δ-opioid (DOP); [3H]-Bremazocine, human DOP membranes): − (“−” indicates less than 50% inhibition at 10 μM) | A5: inhibition of radioligand binding (Human melanocortin (MC5); [125I]-NDP-αMSH, human MC5 membranes, 10 µM): − (“−” indicates less than 50% inhibition at 10 μM) | A2: inhibition of radioligand binding (Human κ-Opioid (KOP); [3H]-Diprenorphine, human KOP membranes): − (“−” indicates less than 50% inhibition at 10 μM) | A3: inhibition of radioligand binding (Human Melanocortin (MC3); [125I]-NDP-αMSH, human MC3 membranes): − (“−” indicates less than 50% inhibition at 10 μM) | A8: inhibition of radioligand binding (Human neurokinin (NK1); [125I]-Substance P, human NK1 membranes): + (“+” indicates greater than 50% inhibition at 10 μM) | A7: inhibition of radioligand binding (Human μ-opioid (MOP); [3H]-Naloxone, human MOP membranes, 10 µM): − (“−” indicates less than 50% inhibition at 10 μM) | A10: inhibition of radioligand binding (Human opioid (ORL1); [125I]-Nociceptin, human ORL1 membranes, 10 µM): + (“+” indicates greater than 50% inhibition at 10 μM) | A9: inhibition of radioligand binding ([2]; [125I]-PYY, human NPY-Y1 membranes): − (“−” indicates less than 50% inhibition at 10 μM) | A4: inhibition of radioligand binding (Human Melanocortin (MC4); [125I]-NDP-αMSH, human MC4 membranes): − (“−” indicates less than 50% inhibition at 10 μM)
